The record followed here is patent publication US20260327232A1, “Heteroaryl Compounds as Ligand Directed Degraders of IRAK4” (Celgene Corporation, priority 2023, published 2026).

The target in experiment [1] is T1, IRAK4 (Homo sapiens, UniProt Q9NWZ3).
T1 sequence (Q9NWZ3 1-460): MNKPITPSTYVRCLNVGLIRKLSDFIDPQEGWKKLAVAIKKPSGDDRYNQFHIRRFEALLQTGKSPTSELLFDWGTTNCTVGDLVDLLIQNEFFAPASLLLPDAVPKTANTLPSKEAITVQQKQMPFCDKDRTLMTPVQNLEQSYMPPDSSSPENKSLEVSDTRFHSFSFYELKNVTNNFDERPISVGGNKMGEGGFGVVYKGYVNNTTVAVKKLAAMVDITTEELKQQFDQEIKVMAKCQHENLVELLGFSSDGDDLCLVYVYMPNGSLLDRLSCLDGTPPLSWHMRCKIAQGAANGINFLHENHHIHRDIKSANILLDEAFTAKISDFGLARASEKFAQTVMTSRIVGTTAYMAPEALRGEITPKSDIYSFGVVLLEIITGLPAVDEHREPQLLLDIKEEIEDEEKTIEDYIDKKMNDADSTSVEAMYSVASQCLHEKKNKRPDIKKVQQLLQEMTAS
Description: IRAK4 PhosphoSens Biochemical Assay (BIOCHEM). The conditions noted are these: 200 μM ATP, 10 μM peptide substrate AQT0326, 1 nM IRAK4, room temperature, 240 minutes. How it is done: The PhosphoSens® biochemical assay was performed as described by the vendor (AssayQuant Technologies Inc. Marlborough, MA). A 1.25× stock solution of IRAK4 (PV4002, ThermoFisher Scientific, Waltham, MA) and a 5× stock solution of ATP and Sox conjugated peptide substrate, AQT0326 (CSKS-AQT0326B, AssayQuant Technologies), were prepared in 1× kinase reaction buffer consisting of 50 mM HEPES, pH 7.5, 0.01% Brij-35, 0.5 mM EGTA, 20 mM MgCl2 and 1 mM DTT. 10 μL of the ATP and substrate solution mix, for a final concentration of 200 μM ATP and 10 μM peptide substrate, was added to a Coming 3574 384-well, white, non-binding surface microtiter plate containing 0.5 μL of serially diluted test compounds prepared in DMSO. The reactions were started with the addition of 40 μL of the enzyme solution, for a final IRAK4 concentration of 1 nM, and monitored every 71 seconds for 240 minutes at λEX 360/λEM 485 in a BioTek Synergy H4 plate reader (Agilent Technologies, Santa Clara, CA) at room temperature. The initial linear portions of the progress curves were fit according to a linear equation to yield the slopes and converted to % inhibition based on a value of 100% activity for the no inhibitor treated control. IC50 values of each compound were obtained by fitting the % inhibition-compound concentration curves using Dotmatics software (Dotmatics, Bishops Stortford, Hertfordshire, England).

Experiment [2] addresses T1, IRAK4. Kind of experiment: ALE THP1 HTRF (IRAK4 in THP1 cell lysates, Homogeneous Time Resolved Fluorescence). In kind it is cell-based. The arrangement: THP1 Homogeneous Time Resolved Fluorescence (ALE THP1 HTRF) Procedure; endogenous in cells; host or cells: THP1. The following applies: THP1 cells. Here is the method: Cell culture media was prepared in a tissue culture hood in a sterile environment by adding 10% FBS and 1% Penicillin Streptomycin to 500 mL no phenol red RPMI 1640 media. The media was filtered through a Nalgene Bottle Top Filter and stored at 4° C.
For Homogenous Time Resolved Fluorescence (HTRF) assays, a Cisbio HTRF kit was used, which included: Lysis Buffer #1 4×, Blocking Reagent #3 100×, 20× Antibody 1 (Anti-IRAK4 d2), 20× Antibody 2 (Anti-IRAK4 k), and Detection Buffer.
4× Lysis Buffer was stored at 4° C. For use as 1× Lysis buffer, the 4× solution was diluted with de-ionized water (distilled water, Gibco Cat. #15230279) and 100× Blocking Reagent in a 1:3:0.04 volume ratio.
20× Antibody Solution aliquots were stored in −80° C. and the Detection Buffer was stored in 4° C. For use as a 1× Antibody Solution, the 20× Antibody Solution aliquot was diluted with Detection Buffer in a 1:19 volume ratio.
Cells were lysed at room temperature for 45 min with shaking. A BCA protein assay was performed and normalization was conducted to the desired total protein concentration with 1× lysis buffer. Next, 1× Antibody Solutions were prepared by adding 380 μL Detection Buffer to 20 μL 20× Antibody Solution aliquots and mixing well. 1× Antibody Solutions were combined 1:1 and briefly vortexed. For control wells, 20 μL 1× anti IRAK4-k Antibody Solution was saved. The 384-well plate (ProxiPlate-384 Plus, Perkin Elmer Cat. #6008289) was loaded by adding 4 μL of the mixed Antibody Solution to empty wells using a single channel repeater. Using a multi-channel repeater, 16 μL lysate was added per well, and any bubbles that were formed were popped with 20 μL pipette tips and Kimwipe edges. In column 10, triplicates of each control was prepared. In wells A10, B10, and C10, buffer control was prepared by adding 16 μL Lysis Buffer and 4 μL Detection Buffer. In wells D10, E10, and F10, cryptate control was prepared by adding 16 μL Lysis Buffer, 2 μL Detection Buffer, and 2 μL 1× anti IRAK4-k Antibody Solution. In wells G10, H10, and 110, a negative control was prepared by adding 16 μL Lysis Buffer and 4 μL mixed Antibody Solution. The plate was sealed with a clear seal and covered with an aluminum lid. The plate was spun down at 800 g for 5 min and incubated in the dark at room temperature overnight. The next day, the plate was spun down at 800 g for 5 min. The samples were analyzed by a plate reader (Envision, PerkinElmer) using the Desnor 384 HTRF program.

pEC50, pIC50: −log10 of the molar value. Where a name gives a salt, the structure may show the parent alone.

Regarding `Cn1nc(C2CCC(=O)NC2=O)c2ccc(NC3CCN(CC4CCC(n5cc(NC(=O)c6cnn7ccc(N8CC[C@@H](F)[C@@H](N)C8)nc67)c(C(F)F)n5)CC4)CC3)cc21` (some centres unmarked) [P-21], the pIC50 in experiment [1] was more than 9.30. In experiment [2], this compound had a pEC50 of less than 5.00.
Take `Cn1nc(C2CCC(=O)NC2=O)c2ccc(N[C@@H]3CCN(CC4CCC(n5cc(NC(=O)c6cnn7ccc(N8C[C@H](N)C[C@@H](F)C8)nc67)c(C(F)F)n5)CC4)C[C@@H]3F)cc21` (some centres unmarked) [P-24]: in experiment [1], the pIC50 was more than 9.30. In experiment [2], this compound had a pEC50 of 8.40.
Consider `Cn1nc(C2CCC(=O)NC2=O)c2ccc(N[C@H]3CCN(CC4CCC(n5cc(NC(=O)c6cnn7ccc(N8C[C@H](N)C[C@@H](F)C8)nc67)c(C(F)F)n5)CC4)C[C@@H]3F)cc21` (some centres unmarked) [P-25], for which the pIC50 in experiment [1] is more than 9.30. Moreover, the pEC50 in experiment [2] was 8.10.
For `Cn1nc(C2CCC(=O)NC2=O)c2ccc(NC3CCN(CC4CCC(n5cc(NC(=O)c6cnn7ccc(N8CCOCC8)nc67)c(C(F)F)n5)CC4)CC3)cc21` (centres unmarked) [P-27, N-[3-(Difluoromethyl)-1-[4-[[4-[[3-(2,6-dioxo-3-piperidyl)-1-methyl-indazol-6-yl]amino]-1-piperidyl]methyl]cyclohexyl]pyrazol-4-yl]-5-morpholino-pyrazolo[1,5-a]pyrimidine-3-carboxamide formic acid salt], the pIC50 in experiment [1] is more than 9.30. Also, in experiment [2], the pEC50 is 9.00.
With `CN(CC1CCC(n2cc(NC(=O)c3cnn4ccc(N5C[C@H](N)C[C@@H](F)C5)nc34)c(C(F)F)n2)CC1)C1CCN(c2ccc3c(C4CCC(=O)NC4=O)nn(C)c3c2)CC1` (some centres unmarked) [P-28, N-[3-(Difluoromethyl)-1-[4-[[[1-[3-(2,6-dioxo-3-piperidyl)-1-methyl-indazol-6-yl]-4-piperidyl]-methyl-amino]methyl]cyclohexyl]pyrazol-4-yl]-5-[(3r,5r)-3-amino-5-fluoro-1-piperidyl]pyrazolo[1,5-a]pyrimidine-3-carboxamide], in experiment [1], the pIC50 was more than 9.30. For the same compound, the pEC50 in experiment [2] was 8.30.
Turning to `CN(CC1CCC(n2cc(NC(=O)c3cnn4ccc(N5C[C@H](N)C[C@@H](F)C5)nc34)c(C(F)F)n2)CC1)C1CCN(c2cccc3c(C4CCC(=O)NC4=O)nn(C)c23)CC1` (stereo partly drawn) [P-30, N-[3-(difluoromethyl)-1-[4-[[[1-[3-(2,6-dioxo-3-piperidyl)-1-methyl-indazol-7-yl]-4-piperidyl]-methyl-amino]methyl]cyclohexyl]pyrazol-4-yl]-5-[(3R,5R)-3-amino-5-fluoro-1-piperidyl]pyrazolo[1,5-a]pyrimidine-3-carboxamide], in experiment [1], the pIC50 was more than 9.30. The compound further had a pEC50 in experiment [2] of 7.85.
In the same order, the values of `CN(c1cccc2c(C3CCC(=O)NC3=O)nn(C)c12)C1CCN(CCC2CCC(n3cc(NC(=O)c4cnn5ccc(N6CCOCC6)nc45)c(C(F)F)n3)CC2)CC1` (centres unmarked) [P-39] are more than 9.30 and less than 5.00.
In the same order, the values of `CN(CC1CCC(n2cc(NC(=O)c3cnn4ccc(N5C[C@H]6CC[C@@H](C5)O6)nc34)c(C(F)F)n2)CC1)C1CCN(c2ccc3c(C4CCC(=O)NC4=O)nn(C)c3c2)CC1` (some centres unmarked) [P-42] are more than 9.30 and less than 5.00.
In the same order, the values of `CN(CC1CCC(n2cc(NC(=O)c3cnn4ccc(N5Cc6cnn(C)c6C5)nc34)c(C(F)F)n2)CC1)C1CCN(c2ccc3c(C4CCC(=O)NC4=O)nn(C)c3c2)CC1` (centres unmarked) [P-49] are 9.10 and less than 5.00.
Take `CN(CC1CCC(n2cc(NC(=O)c3cnn4ccc(N5CC[C@H](C#N)C5)nc34)c(C(F)F)n2)CC1)C1CCN(c2ccc3c(C4CCC(=O)NC4=O)nn(C)c3c2)CC1` (some centres unmarked) [P-50]: the pIC50 in experiment [1] is 9.10. Further, the pEC50 in experiment [2] was less than 5.00.

The pIC50 is the negative decadic logarithm of the IC50, by convention in mol/L. One may read the pEC50 as −log10 of the EC50, conventionally taken in molar units. Low values mean a high EC50, high ones a low EC50.
